Structures are written as SMILES.

From US6841577B2, “Pesticidal activity of plant essential oils and their constituents” (Ecosmart Technologies, Inc., priority 1999, dated 2005) come the findings set out here.

Experiment [1] relates to octopamine receptor sites. Put plainly: 3H-OA binding to ventral nerve cord / synaptosomal membrane protein. More on the design: species or system American cockroach (Periplaneta americana). As to conditions: for classification with respect to octopamine receptor sites (OAR): based on the binding data of Tables 1-3. As for the experimental part: Different concentrations of unlabeled octopamine (OA) (20, 30, 40, 50, 60, 100 ng) were tested on the binding activity as a positive control. Test chemicals were dissolved in acetone before the assay. Different concentrations of the test chemicals were added directly to the protein preparation from ventral nerve cord. The same amount of solvent (1 μl 0.1%) were added to the control samples. All assays with test chemicals were run in the presence and absence of 50 ng OA. All chemicals were added to the protein extract 20 min prior the addition of radio labeled ^3H-OA(100,000 cpm/sample). After 30 min at 24° C. of the addition of ^3H-OA, the reaction was stopped by the addition of ice-cold Tris buffer, and the samples were filtered through GF/C membrane using water vacuum. After two washes each with 5 ml Tris buffer, the membrane was removed, air dried and the radioactivity was counted in 4 ml liquid scintillation solution. The specific binding was calculated as the difference between the values in the presence and absence of unlabeled OA. All data are calculated as the mean±standard deviation of 5 assays.
Additional tests were conducted on radio labeled octopamine using other purified naturally occurring materials as given in Tables 2 and 3.

The next experiment deals with American cockroach. The experiment is described as follows: Cross walk jar test on pre-treated surface. The following applies: for pesticidal activity against cockroaches, in words: in vivo. It is filed as in vivo. As for the experimental part: In the test, a known amount of the test material was dissolved in a known volume of acetone and applied to small jars and all inner bottom surfaces were covered. The bottom surface of each jar is approximately 250 cm^2. One hour after the acetone had completely evaporated, five American cockroaches were introduced to each jar. Control jars were treated exactly as above but with the known amount of acetone only.
The results of the “cross walk” jar tests are in Table 8 in which the “4-blend” was dispersed as an aerosol and a dust in the jar.
In this test, the acetone solution of the test material was placed in the jar and the roach inserted into the jar after the acetone had evaporated.
Mortality was measured 24 hours after exposure.
The “4-blend” and the individual constituents of the “4-blend” were tested using 10 cockroaches for each “cross walk” treatment. In addition, pyrethrins were tested separately and mixed with the various components.
A concentration of 100 mg/jar was used for each individual alone. In the co-treatment experiment without pyrethrins, 20 mg/jar for each chemical was used. In the cotreatment experiment with pyrethrins, 20 mg/jar for the naturally occurring plant material was used. Pyrethrins was used at 2 mg/jar. […] It was noted above that the mortality is dependent upon concentration. […] Some synergism is found between pyrethrins and either α-terpineol or benzyl alcohol.

Experiment [2] has as its system 3rd instar Asian armyworms (Spodoptera litura). The following applies: in vivo. As for the experimental part:
Additional synergistic testing was conducted on 3rd instar Asian armyworms (Spodoptera litura). […] The number of replicates is given as “n”.

Experiment [3] concerns 2nd instar green peach aphid nymphs. The experiment is described as follows: Cabbage leaf disc bioassay. The format is in vivo. As for the experimental part:
A bioassay similar to that for S. litura larvae was used for additional larvae. Cabbage leaf discs were dipped in emulsified aqueous solutions, diluted 1:200 in water, on which 2nd instar green peach aphid nymphs were placed. For each treatment there was 10 aphids per disc with 5 replicates; each experiment was replicated in time (successive days) from 3-5 times. After 24 hours, aphids were reported as being (1) on the leaf disc and feeding; (2) alive, but walking off the disc; or (3) dead. In the field, aphids which cease feeding and abandon a host plant are very unlikely to survive.

Another experiment has as its system larvae. The experiment is described as follows: Feeding deterrence of carvacrol. The following applies: on doubling the concentration. The format is in vivo. The source says: FIG. 6 is a graph of the feeding deterrence of carvacrol vs. larvae.
The 5-blend can be considered as a relatively broad spectrum pesticide. […] The effect of concentration of the pesticide is shown in […] where a doubling in the concentration of carvacrol produces a 3-4 fold increase in deterrence of feeding.

In the case of `CCC(=O)OCCc1ccccc1` [Phenethyl propionate], in experiment [1], the “activity/binding at octopamine receptor sites, in words” value was “antagonists which are most strongly bound” and the “classification with respect to octopamine receptor sites (OAR)” value is given as “extremely high OAR antagonists”. Further, the “agonist/antagonist note to 3H-OA binding” value in experiment [1] (500 ng/ml) is “antagonist”. Further, the “cpm 3H-OA/500 μg protein” value in experiment [1] (500 ng/ml, Table 3, solvent control 1385 ± 101) stood at 0173 ± 022 cpm 3H-OA/500 μg protein. Besides, in the experiment with American cockroach (Periplaneta americana, 24 h), the mortality (in general, the share of the test organisms that died) at 10 mg worked out at 30%; the mortality at 20 mg was 40%; the mortality at 30 mg worked out at 60%; the mortality at 40 mg was 90%. In the experiment with American cockroach (Periplaneta americana, 24 h), the mortality at 50 mg turned out to be 100% and the mortality at 100 mg was determined as 100%. The “pesticidal activity against cockroaches, in words” value in the experiment on American cockroach is given as “high pesticidal activity”. Further, the “activity on Asian armyworms, in words” value in experiment [2] is on record as “relatively low activity”. Besides, the “activity on green peach aphid nymphs, in words” value in experiment [3] (1:200 dilution) was “essentially inactive”. Also, in experiment [3] (n = 250, Table 17, control 8.7), the “Percentage of aphids Dead” value was 13.3%. The “Percentage of aphids Walking (off disc)” value in experiment [3] (n = 250, Table 17, control 15.3) was found to be 25.3%. The “Percentage of aphids Feeding” value in experiment [3] (n = 250, Table 17, control 76.0) amounted to 62.0%.
Take `Cc1ccc(C(C)C)cc1O` [Carvacol, Carvacrol]: the “agonist/antagonist note to 3H-OA binding” value in experiment [1] (1000 ng/ml) is on record as “agonist”. Besides, in experiment [1] (1000 ng/ml, Table 2, solvent control 930 ± 89), the “dpm 3H-OA/500 μg protein” value is given as 2366 ± 149 dpm 3H-OA/500 μg protein. The “classification with respect to octopamine receptor sites (OAR)” value in experiment [1] is “OAR Agonists”. In addition, in the experiment on American cockroach (Periplaneta americana, 24 h), the mortality at 10 mg was found to be 0%, the mortality at 20 mg is 20%, the mortality at 40 mg was determined as 50% and the mortality at 50 mg amounted to 80%. Moreover, in the experiment on American cockroach (Periplaneta americana, 24 h), the mortality at 100 mg was found to be 100%. Also, the “pesticidal activity against cockroaches, in words” value in the experiment on American cockroach is on record as “high pesticidal activity”. In addition, the “increase in deterrence of feeding” value in the experiment with larvae is 3-4 fold.
